# Literature values as cited in Sander's compilation of Henry's law constants (doi:10.1080/00022470.1982.10465374).
# Experiment: Henry solubility constant Hcp at 298.15 K (mol/(m3 Pa))
# Conditions: reference: Shen (1982); cited value
row,SMILES,Henry solubility constant Hcp
1,"CC(Cl)(Cl)Cl [1,1,1-trichloroethane]",0.002
2,"C=C(Cl)Cl [1,1-dichloroethene]",0.00066
3,"CC(Cl)CCl (centres undefined) [1,2-dichloropropane]",0.0035
4,"Clc1cccc(Cl)c1 [1,3-dichlorobenzene]",0.0038
5,"ClC=CCCl [1,3-dichloropropene]",0.0028
6,"Clc1ccc(Cl)cc1 [1,4-dichlorobenzene]",0.0036
7,"c1ccc2c(c1)Cc1ccccc1-2 [2,3-benzindene]",0.084
8,c1cc2c3c(cccc3c1)CC2 [acenaphthene],0.041
9,C1=Cc2cccc3cccc1c23 [acenaphthylene],0.087
10,ClC1=C(Cl)[C@]2(Cl)[C@H]3[C@H]([C@@H]4C=C[C@H]3C4)[C@@]1(Cl)C2(Cl)Cl [aldrin],0.02
11,c1ccccc1 [benzene],0.0018
12,ClC(Cl)Br [bromodichloromethane],0.0047
13,ClC1=C(Cl)[C@]2(Cl)C3C(Cl)C(Cl)CC3[C@@]1(Cl)C2(Cl)Cl (some centres undefined) [chlordane],0.21
14,Clc1ccccc1 [chlorobenzene],0.0025
15,ClC(Br)Br [dibromochloromethane],0.013
16,ClCCl [dichloromethane],0.0031
17,ClC1=C(Cl)[C@]2(Cl)[C@@H]3[C@@H]4C[C@@H]([C@H]5O[C@@H]45)[C@@H]3[C@@]1(Cl)C2(Cl)Cl [dieldrin],0.17
18,CCc1ccccc1 [ethylbenzene],0.0015
19,ClC1=C(Cl)C2(Cl)C3C(Cl)C=CC3C1(Cl)C2(Cl)Cl (centres undefined) [heptachlor],0.0067
20,ClC1=C(Cl)C2(Cl)C3C4OC4C(Cl)C3C1(Cl)C2(Cl)Cl (centres undefined) [heptachlorepoxide],0.31
21,ClC(Cl)=C(Cl)C(Cl)=C(Cl)Cl [hexachlorobutadiene],0.00096
22,ClC1=C(Cl)C(Cl)(Cl)C(Cl)=C1Cl [hexachlorocyclopentadiene],0.0006
23,ClC(Cl)(Cl)C(Cl)(Cl)Cl [hexachloroethane],0.001
24,Cc1ccccc1 [methylbenzene],0.0017
25,O=[N+]([O-])c1ccccc1 [nitrobenzene],0.41
26,ClC(Cl)=C(Cl)Cl [tetrachloroethene],0.00034
27,ClC(Cl)(Cl)Cl [tetrachloromethane],0.00033
28,BrC(Br)Br [tribromomethane],0.019
29,ClC=C(Cl)Cl [trichloroethene],0.00084
